According to US20160120802A1, “ORALLY-DISINTEGRATING OSELTAMIVIR TABLET AND METHOD FOR PREPARING THE SAME” (priority 2013, published 2016):

Test system: pigeons
Assay: Pigeons vomiting model
Settings: intragastric, equivalent to 30 mg oseltamivir per kg
Method: 1. Experimental Animal: Healthy Pigeons (Both Males and Females were Operable), 350±50 g of Weights, Common Grades, and Purchased from a Breeding Base.
70 healthy pigeons were randomly divided into 7 groups and adaptively fed with normal diets for 1 week before the experiment. Diets were prohibited within 4 hrs before the experiment, the room temperature was maintained at between 22 and 24° C., and the feeding environment was kept clean and well ventilated. The pigeons were administered with drugs according to the following groups, the administration dosage corresponded to 30 mg oseltamivir per kg of the pigeon's weight, or the equivalent amount of the starch.
Contrast group A, one group, administered with the raw material of oseltamivir with a dosage equivalent to 30 mg of oseltamivir per kg of the pigeon's weight.
Contrast group B, one group, administered with the polyacrylic acid resin IV with a dosage equivalent to 30 mg of the starch per kg of the pigeon's weight.
Contrast group D, one group, administered with the commercial oseltamivir phosphate capsules manufactured by Roche with a dosage equivalent to 30 mg of oseltamivir per kg of the pigeon's weight.
Observation indexes: latent periods of vomiting (the period from the administration to the first vomiting), vomiting times (occurrences of the vomiting after the drug administration, each occurrence of the vomiting refers to the duration from neck stretching, mouth opening, shrugging, and abdominal contraction of the pigeons to recovery of the quiet state of the pigeons), and vomiting frequencies (referring to the times of neck stretching, mouth opening, shrugging, and abdominal contraction of the pigeons).
The pigeons in each group were taken drugs by intragastric administration with a dosage equivalent to 30 mg of oseltamivir per kg of the pigeon's weight. The latent periods of vomiting (min) after the intragastric administration, as well as the vomiting times and the vomiting frequency in 5 hrs after the intragastric administration were recorded.
In each group, the number of the vomiting pigeons (n) was calculated. For the vomiting pigeons (including vomiting with vomitus and dry vomiting in the absence of vomitus), the latent period of vomiting (min, x±s), the average vomit times, and the average vomit frequencies were calculated, and results were listed in the following table 2.

Question: For `CCOC(=O)C1=CC(OC(CC)CC)C(NC(C)=O)C(N)C1` (stereo not shown) [Contrast group A], which “Note (kind of vomiting)” value is on record?
Answer: Seven times of vomiting

Question: What about the “Latent period for vomiting” value (vomiting pigeons, x ± s) of the same molecule?
Answer: 18.9 ± 5.4 min

Question: What about the “Average vomiting times (within 5 hrs)” value (within 5 hrs) of the same molecule?
Answer: 11.1

Question: And the Vomiting frequencies (within 5 hrs, x ± s)?
Answer: 15.8 ± 2.1 times
